Source: PMC6805867, “Amphiphilic Triazine Polymer Derivatives as Antibacterial And Anti-atopic Agents in Mice Model” (Scientific Reports, 2019)

What was measured:
Type in all cases: cell-based
[1] = system: Multidrug-resistant Pseudomonas aeruginosa (MDRPA) (CCARM 2095); test: Chequerboard assay (synergy with clinically used antibiotics); conditions: for FICA (fractional inhibitory concentration of antibiotic): [A]/MICA; for MICA (MIC of antibiotic alone): MDRPA CCARM 2095, 37 °C, 22 h, unit printed only in b27, not in the table; for [A] (MIC of antibiotic in combination): MDRPA CCARM 2095, unit not given
Experimental: Briefly, 2-fold serial dilutions of each antibiotic and each polymer were prepared and added in a 1:1 volume ratio to the wells of a 96-well plate. An equal volume of bacterial solution (100 μL) at ∼10^6 CFU/mL was then seeded into each well. The plates were incubated in a shaking incubator at 37 °C and 200 rpm and read after 22 h. Bacterial growth was assessed visually or spectrophotometrically via OD600 readings taken by a microplate ELISA reader (Molecular Devices, Sunnyvale, CA, USA). The fractional inhibitory concentration index (FICI) for each drug combination was calculated using the following equation: FICI = FICA + FICB = [A]/MICA + [B]/MICB, where MICA and MICB are the MIC of antibiotic and triazine based monomer (TZP3 or TZP5), respectively, while [A] and [B] are the MIC of antibiotic and triazine based monomer (TZP3 or TZP5) in combination, respectively. FICI of ≤ 0.5 was interpreted as synergy, 0.5 < FICI ≤ 1.0 as additive, 1.0 < FICI ≤ 4.0 as indifferent, and a FICI > 4.0 as antagonism.

[2] = system: Pseudomonas aeruginosa (KCTC 1637); test: Antimicrobial activity, broth microdilution MIC; conditions: 2 × 10^6 CFU/mL in 1% peptone, 37 °C, 18–22 h, 100% inhibition of growth, performed three times
Experimental: (§1) The bacterial strains employed in the experiment were Escherichia coli (KCTC 1682), Pseudomonas aeruginosa (KCTC 1637), Bacillus subtilis (KCTC 3068), Staphylococcus aureus (KCTC 1621), three methicillin-resistant Staphylococcus aureus (CCARM 3089, 3090 and 3095), two multidrug-resistant Pseudomonas aeruginosa (CCARM 2095 and 2109) and vancomycin-resistant Enterococcus faecium (ATCC 51559). The antimicrobial activities of polymers were determined by the broth microdilution method, and the procedures were used as previously reported. Briefly, bacteria grown to mid-logarithmic phase in LB broth were diluted to 2 × 10^6 CFU/mL in 1% peptone and added to serial two-fold dilutions of different polymers ranging from 1 to 64 μg/mL. The plates were incubated in a shaking incubator at 37 °C for 18–22 h. The minimum inhibitory concentration (MIC) was determined by confirming the absence of bacterial growth both visually and spectrophotometrically by OD600 readings taken by a microplate ELISA reader (Molecular Devices, Sunnyvale, CA, USA). All measurements were performed three times.

[3] = system: Staphylococcus aureus (KCTC 1621); test: Antimicrobial activity, broth microdilution MIC; conditions: 2 × 10^6 CFU/mL in 1% peptone, 37 °C, 18–22 h, 100% inhibition of growth, performed three times
Experimental: as §1

[4] = system: Bacillus subtilis (KCTC 3068); test: Antimicrobial activity, broth microdilution MIC; conditions: 2 × 10^6 CFU/mL in 1% peptone, 37 °C, 18–22 h, 100% inhibition of growth, performed three times
Experimental: as §1

[5] = system: Escherichia coli (KCTC 1682); test: Antimicrobial activity, broth microdilution MIC; conditions: 2 × 10^6 CFU/mL in 1% peptone, 37 °C, 18–22 h, 100% inhibition of growth, performed three times
Experimental: as §1

[6] = system: selected bacterial strains; test: Geometric mean of MIC values over the bacterial strains; conditions: geometric mean of MIC values from selected six bacterial strains (footnote b)
Experimental: as §1

Structure (SMILES)	FICA (fractional inhibitory concentration of antibiotic) ([1]; in combination with TZP3)	FICA (fractional inhibitory concentration of antibiotic) ([1]; in combination with TZP5)	MICA (MIC of antibiotic alone) [1] [µM]	MICA (MIC of antibiotic alone) ([1]; listed as chloramphenicol)	[A] (MIC of antibiotic in combination) ([1]; in combination with TZP3)	[A] (MIC of antibiotic in combination) ([1]; in combination with TZP5)	MICA (MIC of antibiotic alone) ([1]; listed as oxacillin)	MIC Pseudomonas aeruginosa (KCTC 1637) [2]	MIC Staphylococcus aureus (KCTC 1621) [3]	MIC Bacillus subtilis (KCTC 3068) [4]	MIC Escherichia coli (KCTC 1682) [5]	GM (geometric mean of MIC values) [6]
O=C(N[C@H](CO)[C@H](O)c1ccc([N+](=O)[O-])cc1)C(Cl)Cl [Chloramphenicol, chloramphenicol, reference compound]	0.031	0.031	512	512−1024 μM	16	16	–	–	–	–	–	–
Cc1onc(-c2ccccc2)c1C(=O)N[C@@H]1C(=O)N2[C@@H]1SC(C)(C)[C@@H]2C(=O)O [Oxacillin, oxacillin, reference compound]	1.0	1.0	1024	–	1024	1024	512−1024 μM	–	–	–	–	–
NCCCN(CCCN)c1nc(N)nc(NCCNc2nc(Cl)nc(N(CCCN)CCCN)n2)n1 [TZP1]	–	–	–	–	–	–	–	64 [121.7] μg/mL	32 [60.8] μg/mL	64 [121.7] μg/mL	32 [60.8] μg/mL	48.0 [91.3] μg/mL
N=C(N)NCCCN(CCCNC(=N)N)c1nc(N)nc(NCCNc2nc(Cl)nc(N(Cc3ccccc3)Cc3ccccc3)n2)n1 [TZP2]	–	–	–	–	–	–	–	8 [11.8] μg/mL	2 [3] μg/mL	2 [3] μg/mL	2 [3] μg/mL	3.5 [5.2] μg/mL
NCCCN(CCCN)c1nc(N)nc(NCCNc2nc(NCCNc3nc(Cl)nc(N(Cc4ccccc4)Cc4ccccc4)n3)nc(N(CCCN)CCCN)n2)n1 [TZP4]	–	–	–	–	–	–	–	4 [4.7] μg/mL	2 [2.3] μg/mL	2 [2.3] μg/mL	2 [2.3] μg/mL	2.5 [2.9] μg/mL
N=C(N)NCCCN(CCCNC(=N)N)c1nc(Cl)nc(NCCNc2nc(NCCNc3nc(N)nc(N(CCCN)CCCN)n3)nc(N(Cc3ccccc3)Cc3ccccc3)n2)n1 [TZP6]	–	–	–	–	–	–	–	4 [4.2] μg/mL	2 [2.1] μg/mL	2 [2.1] μg/mL	2 [2.1] μg/mL	2.5 [2.7] μg/mL
NCCCN(CCCN)c1nc(N)nc(NCCNc2nc(NCCNc3nc(Cl)nc(N(CCCN)CCCN)n3)nc(N(CCCN)CCCN)n2)n1 [TZP7]	–	–	–	–	–	–	–	8 [10.1] μg/mL	16 [20.2] μg/mL	8 [10.1] μg/mL	16 [20.2] μg/mL	12.0 [15.2] μg/mL
